For experiment [1], the target named is T1, Alpha-1A adrenergic receptor (Homo sapiens, UniProt P35348).
T1 sequence (P35348 whole entry): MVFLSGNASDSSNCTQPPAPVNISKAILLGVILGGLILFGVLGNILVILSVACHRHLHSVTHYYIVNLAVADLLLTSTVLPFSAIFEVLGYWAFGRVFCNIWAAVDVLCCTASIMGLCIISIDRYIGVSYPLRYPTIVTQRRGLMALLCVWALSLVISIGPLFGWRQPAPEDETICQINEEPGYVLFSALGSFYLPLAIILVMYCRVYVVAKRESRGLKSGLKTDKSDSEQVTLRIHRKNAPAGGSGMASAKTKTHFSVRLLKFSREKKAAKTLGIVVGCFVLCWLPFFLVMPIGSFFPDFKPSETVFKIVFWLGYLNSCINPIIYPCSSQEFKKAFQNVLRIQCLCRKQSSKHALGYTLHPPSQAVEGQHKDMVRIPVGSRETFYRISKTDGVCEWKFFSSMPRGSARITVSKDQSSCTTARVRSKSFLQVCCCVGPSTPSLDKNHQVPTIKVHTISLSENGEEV
The experiment is classed as functional, cell-based.

Another experiment addresses D(3) dopamine receptor (Homo sapiens, UniProt P35462).
Experiment [2] addresses T2, Type-1 angiotensin II receptor (Homo sapiens, UniProt P30556).
T2 sequence (P30556 whole entry): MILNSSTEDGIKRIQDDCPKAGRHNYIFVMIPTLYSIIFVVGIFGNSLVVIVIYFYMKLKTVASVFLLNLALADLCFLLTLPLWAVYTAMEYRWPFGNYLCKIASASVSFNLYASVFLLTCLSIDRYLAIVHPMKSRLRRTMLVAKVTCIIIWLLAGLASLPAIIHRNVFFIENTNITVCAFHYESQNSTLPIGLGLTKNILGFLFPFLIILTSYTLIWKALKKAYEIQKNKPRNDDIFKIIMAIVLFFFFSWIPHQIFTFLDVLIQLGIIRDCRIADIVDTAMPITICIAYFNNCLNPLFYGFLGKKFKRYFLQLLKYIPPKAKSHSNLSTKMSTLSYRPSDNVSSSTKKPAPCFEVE

Another experiment concerns the target Adenosine receptor A2a (Homo sapiens, UniProt P29274).
Experiment [3] addresses T3, 5-hydroxytryptamine receptor 1A (Homo sapiens, UniProt P08908).
T3 sequence (P08908 whole entry): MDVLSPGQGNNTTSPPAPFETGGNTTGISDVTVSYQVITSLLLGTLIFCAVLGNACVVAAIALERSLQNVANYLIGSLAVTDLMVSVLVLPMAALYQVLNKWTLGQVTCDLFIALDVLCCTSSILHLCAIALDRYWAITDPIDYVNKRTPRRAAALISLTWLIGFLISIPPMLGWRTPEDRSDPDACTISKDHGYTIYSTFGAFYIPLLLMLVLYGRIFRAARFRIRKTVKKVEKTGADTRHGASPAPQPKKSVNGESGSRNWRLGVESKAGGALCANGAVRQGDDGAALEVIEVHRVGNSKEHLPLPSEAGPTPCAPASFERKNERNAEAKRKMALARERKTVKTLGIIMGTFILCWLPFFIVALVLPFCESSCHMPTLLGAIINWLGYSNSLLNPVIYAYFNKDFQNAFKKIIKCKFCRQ
The format is functional, cell-based.

In another experiment the target is T4, Progesterone receptor (Homo sapiens, UniProt P06401).
T4 sequence (P06401 whole entry): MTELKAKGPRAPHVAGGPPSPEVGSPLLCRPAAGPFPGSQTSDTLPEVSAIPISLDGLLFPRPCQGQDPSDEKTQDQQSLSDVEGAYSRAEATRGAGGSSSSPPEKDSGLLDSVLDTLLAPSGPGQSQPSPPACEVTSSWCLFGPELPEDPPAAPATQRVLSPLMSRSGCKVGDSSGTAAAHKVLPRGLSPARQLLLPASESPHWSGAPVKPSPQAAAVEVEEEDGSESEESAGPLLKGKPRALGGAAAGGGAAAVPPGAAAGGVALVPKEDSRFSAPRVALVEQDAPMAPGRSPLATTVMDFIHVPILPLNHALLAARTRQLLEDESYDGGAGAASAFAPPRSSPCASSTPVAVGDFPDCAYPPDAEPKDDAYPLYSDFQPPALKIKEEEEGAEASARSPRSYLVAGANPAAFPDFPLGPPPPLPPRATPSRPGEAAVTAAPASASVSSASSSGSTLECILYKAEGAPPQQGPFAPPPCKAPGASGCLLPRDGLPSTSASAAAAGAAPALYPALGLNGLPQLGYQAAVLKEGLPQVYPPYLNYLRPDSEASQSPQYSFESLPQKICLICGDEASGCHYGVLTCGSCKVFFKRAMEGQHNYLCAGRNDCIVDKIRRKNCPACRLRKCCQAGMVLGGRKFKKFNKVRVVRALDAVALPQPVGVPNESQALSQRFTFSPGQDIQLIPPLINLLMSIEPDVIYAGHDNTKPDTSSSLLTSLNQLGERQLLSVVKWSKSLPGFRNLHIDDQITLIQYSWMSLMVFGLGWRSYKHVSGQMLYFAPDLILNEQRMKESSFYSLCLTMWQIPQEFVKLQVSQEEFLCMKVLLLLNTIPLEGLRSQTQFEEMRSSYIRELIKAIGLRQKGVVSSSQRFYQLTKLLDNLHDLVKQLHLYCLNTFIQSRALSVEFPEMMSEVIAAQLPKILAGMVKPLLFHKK
The experiment is classed as functional.

The target in experiment [4] is T5, Gastrin/cholecystokinin type B receptor (Homo sapiens, UniProt P32239).
T5 sequence (P32239 whole entry): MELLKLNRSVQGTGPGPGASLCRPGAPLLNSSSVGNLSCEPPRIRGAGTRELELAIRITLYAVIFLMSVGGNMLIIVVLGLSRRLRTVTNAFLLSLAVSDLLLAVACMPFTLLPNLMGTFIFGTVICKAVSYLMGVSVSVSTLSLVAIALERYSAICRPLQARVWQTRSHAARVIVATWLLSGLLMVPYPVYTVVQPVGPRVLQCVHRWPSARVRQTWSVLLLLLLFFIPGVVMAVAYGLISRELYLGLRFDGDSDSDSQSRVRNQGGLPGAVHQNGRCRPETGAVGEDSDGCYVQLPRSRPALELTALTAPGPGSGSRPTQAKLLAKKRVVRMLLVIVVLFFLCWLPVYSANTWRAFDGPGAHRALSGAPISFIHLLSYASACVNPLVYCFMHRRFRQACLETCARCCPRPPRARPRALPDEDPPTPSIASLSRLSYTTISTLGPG

Experiment [5] has as its target Sodium-dependent noradrenaline transporter (Homo sapiens, UniProt P23975).
Further: assay procedure not described here.

Sequence of Adenosine receptor A2a (P29274 whole entry): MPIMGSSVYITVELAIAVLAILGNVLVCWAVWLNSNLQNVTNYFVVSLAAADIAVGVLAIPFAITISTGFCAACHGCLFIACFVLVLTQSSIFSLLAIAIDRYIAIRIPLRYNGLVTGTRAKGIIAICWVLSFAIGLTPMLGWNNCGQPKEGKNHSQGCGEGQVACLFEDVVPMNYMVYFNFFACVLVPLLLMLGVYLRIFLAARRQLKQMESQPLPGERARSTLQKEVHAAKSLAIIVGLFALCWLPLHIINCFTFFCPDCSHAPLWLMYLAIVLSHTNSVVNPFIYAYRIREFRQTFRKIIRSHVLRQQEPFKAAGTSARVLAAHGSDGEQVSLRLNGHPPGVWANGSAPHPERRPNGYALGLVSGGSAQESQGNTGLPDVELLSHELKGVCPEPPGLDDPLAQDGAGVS
Sequence of D(3) dopamine receptor (P35462 whole entry): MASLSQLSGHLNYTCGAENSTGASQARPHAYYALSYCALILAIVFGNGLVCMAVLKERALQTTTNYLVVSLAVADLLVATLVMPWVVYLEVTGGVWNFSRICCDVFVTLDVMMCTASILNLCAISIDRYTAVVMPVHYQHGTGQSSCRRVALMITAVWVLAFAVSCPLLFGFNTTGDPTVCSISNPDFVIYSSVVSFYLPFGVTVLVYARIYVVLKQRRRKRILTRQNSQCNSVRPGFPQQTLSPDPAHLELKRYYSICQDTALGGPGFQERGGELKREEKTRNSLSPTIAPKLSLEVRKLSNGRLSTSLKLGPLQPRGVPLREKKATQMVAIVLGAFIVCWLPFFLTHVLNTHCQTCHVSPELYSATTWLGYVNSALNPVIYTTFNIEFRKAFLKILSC
Sequence of Sodium-dependent noradrenaline transporter (P23975 whole entry): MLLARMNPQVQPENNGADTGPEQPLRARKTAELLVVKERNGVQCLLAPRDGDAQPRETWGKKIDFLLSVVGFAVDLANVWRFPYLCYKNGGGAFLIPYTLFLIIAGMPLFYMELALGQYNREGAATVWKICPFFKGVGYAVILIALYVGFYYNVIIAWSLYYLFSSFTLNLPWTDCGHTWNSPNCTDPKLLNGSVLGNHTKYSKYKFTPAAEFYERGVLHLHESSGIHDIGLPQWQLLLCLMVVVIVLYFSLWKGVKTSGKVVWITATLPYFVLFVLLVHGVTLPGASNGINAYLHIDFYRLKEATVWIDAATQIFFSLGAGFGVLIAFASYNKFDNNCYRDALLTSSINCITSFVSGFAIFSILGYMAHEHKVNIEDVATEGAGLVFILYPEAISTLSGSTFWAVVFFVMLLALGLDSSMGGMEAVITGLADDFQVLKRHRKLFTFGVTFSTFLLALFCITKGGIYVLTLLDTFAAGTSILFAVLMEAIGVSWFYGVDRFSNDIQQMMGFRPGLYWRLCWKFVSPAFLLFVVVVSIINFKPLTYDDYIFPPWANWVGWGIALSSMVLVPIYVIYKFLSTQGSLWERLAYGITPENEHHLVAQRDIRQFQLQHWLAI

Turning to `C[N+](C)(C)CCOP(=O)([O-])OC[C@H](O)CO`, the AC50 (in experiment [1]; at D(3) dopamine receptor; in experiment [2]; at Adenosine receptor A2a; in experiment [3]; at Progesterone receptor) was over 30 µM throughout. The same molecule displayed an AC50 in experiment [4] of over 30 µM.
As to `CN(C)C/C=C/C(=O)Nc1cc2c(Nc3ccc(F)c(Cl)c3)ncnc2cc1O[C@H]1CCOC1` [AFATINIB], the half-maximal activity concentration (AC50) (in experiment [1]; on D(3) dopamine receptor; in experiment [2]; on Adenosine receptor A2a; in experiment [3]; on Progesterone receptor) was over 30 µM throughout. In experiment [4], this molecule registered an AC50 of over 30 µM.
On to `CCC1(c2ccc(N)cc2)CCC(=O)NC1=O` (centres undefined) [AMINOGLUTETHIMIDE], for which the AC50 (in experiment [1]; on D(3) dopamine receptor; in experiment [2]; at Adenosine receptor A2a; in experiment [3]; at Progesterone receptor) was over 30 µM in each case. Besides, the AC50 in experiment [4] is over 30 µM.
On to `CC1=C(C(=O)OC(C)C)C(c2cccc([N+](=O)[O-])c2)C(C(=O)OC2CN(C(c3ccccc3)c3ccccc3)C2)=C(N)N1` (centres undefined) [AZELNIDIPINE], for which the AC50 in experiment [1] is 26 µM; on D(3) dopamine receptor it was over 30 µM; in experiment [2], 12 µM; on Adenosine receptor A2a, over 30 µM; in experiment [3], over 30 µM; at Progesterone receptor, over 30 µM. The molecule also gave a half-maximal activity concentration (AC50) in experiment [4] of over 30 µM.
For `CC(Cc1cccc(C(F)(F)F)c1)NCCOC(=O)c1ccccc1` (centres undefined) [BENFLUOREX], the half-maximal activity concentration (AC50) in experiment [1] was 14 µM; on D(3) dopamine receptor, 2.63 µM; in experiment [2], over 30 µM; at Adenosine receptor A2a, over 30 µM; in experiment [3] it was 4.3 µM; on Progesterone receptor, over 30 µM. Further, in experiment [4], the AC50 was over 30 µM.
Turning to `CC(O)(CS(=O)(=O)c1ccc(F)cc1)C(=O)Nc1ccc(C#N)c(C(F)(F)F)c1` (centres undefined) [BICALUTAMIDE], the AC50 in experiment [1] was over 30 µM; on D(3) dopamine receptor, over 10 µM; in experiment [2], over 30 µM; on Adenosine receptor A2a, over 30 µM; in experiment [3], over 10 µM; in experiment [5], over 30 µM. The AC50 (on Progesterone receptor; in experiment [4]) was over 30 µM throughout.
For the molecule `CN[C@]1(c2ccccc2Cl)CCCCC1=O` [ESKETAMINE], the AC50 (in experiment [1]; on D(3) dopamine receptor; in experiment [2]; at Adenosine receptor A2a; in experiment [3]; at Progesterone receptor) was over 30 µM in each case. In experiment [4], this molecule had an AC50 of over 30 µM.
Regarding `C[C@@H]1C[C@H]2[C@@H]3C[C@H](F)C4=CC(=O)C=C[C@]4(C)[C@@]3(F)[C@@H](O)C[C@]2(C)[C@@]1(OC(=O)c1ccco1)C(=O)SCF` [FLUTICASONE FUROATE], the AC50 in experiment [1] was over 30 µM; at D(3) dopamine receptor, over 30 µM; in experiment [2], over 10 µM; on Adenosine receptor A2a, over 10 µM; in experiment [3], over 10 µM; in experiment [5], over 30 µM. This molecule also yielded an AC50 in experiment [4] of over 10 µM.
`CN(C)CCCN1c2ccccc2CCc2ccccc21` [IMIPRAMINE]: the AC50 in experiment [1] was 0.41 µM; on D(3) dopamine receptor, 0.41 µM; in experiment [2] it was over 30 µM; at Adenosine receptor A2a, over 30 µM; in experiment [3], over 10 µM; in experiment [4], over 30 µM.
As to `CCOC(=O)C1=C(C)NC(C)=C(C(=O)OCC)C1c1ccccc1/C=C/C(=O)OC(C)(C)C` [LACIDIPINE], the AC50 (in experiment [1]; at D(3) dopamine receptor; in experiment [2]; on Adenosine receptor A2a; in experiment [3]; at Progesterone receptor) was over 30 µM throughout. The same molecule came in with an AC50 in experiment [4] of over 30 µM.
`COC(=O)C1=C(C)NC(C)=C(C(=O)OCCN2CCN(C(c3ccccc3)c3ccccc3)CC2)C1c1cccc([N+](=O)[O-])c1` (centres undefined) [MANIDIPINE 6300]: the AC50 in experiment [1] was over 30 µM; on D(3) dopamine receptor it was 6.3 µM; in experiment [2] it was over 30 µM; at Adenosine receptor A2a, over 30 µM; in experiment [3] it was over 30 µM; on Progesterone receptor, over 30 µM. Also, the AC50 in experiment [4] was over 30 µM.
Take `CN(Cc1cnc2nc(N)nc(N)c2n1)c1ccc(C(=O)N[C@@H](CCC(=O)O)C(=O)O)cc1` [METHOTREXATE]: the AC50 in experiment [1] is over 30 µM; at D(3) dopamine receptor it was over 30 µM; in experiment [2], over 30 µM; on Adenosine receptor A2a, over 30 µM; in experiment [3] it was over 10 µM; in experiment [4] it was over 30 µM.
Turning to `O=C1c2cccc3c2[C@H](CCC3)CN1[C@@H]1CN2CCC1CC2` [PALONOSETRON], the AC50 in experiment [1] was 29 µM; on D(3) dopamine receptor, 29 µM; in experiment [2] it was over 30 µM; at Adenosine receptor A2a it was over 30 µM; in experiment [3], over 30 µM; on Progesterone receptor it was over 30 µM. Further, the AC50 in experiment [4] was over 30 µM.
In the case of `Cc1cccc(C)c1NC(=O)CC12CCCN1CCC2` [PILSICAINIDE], the AC50 (in experiment [1]; on D(3) dopamine receptor; in experiment [2]; on Adenosine receptor A2a; in experiment [3]; on Progesterone receptor) was over 30 µM throughout. In experiment [4], this molecule gave an AC50 of over 30 µM.
As to `C[C@]12CCC(=O)C[C@@H]1CC[C@@H]1[C@@H]2CC[C@]2(C)[C@@H](O)CC[C@@H]12` [STANOLONE], the AC50 was over 30 µM in experiment [1]; over 30 µM on D(3) dopamine receptor; over 30 µM in experiment [2]; over 30 µM at Adenosine receptor A2a; over 30 µM in experiment [3]; 0.0396 µM on Progesterone receptor. In addition, the AC50 in experiment [4] is over 30 µM.

One may read the AC50 as the concentration at which the activity in the assay is half-maximal. Read a low AC50 as greater potency.

The record behind these values is ChEMBL document CHEMBL5291721, “A preclinical secondary pharmacology resource illuminates target-adverse drug reaction associations of marketed drugs” (Nat Commun, 2023).
